Laboratory results: patent US12128048B2, “Combination therapies using PRMT5 inhibitors for the treatment of cancer” (Mirati Therapeutics, Inc., priority 2021, dated 2024)

Tests used:
[1] = test system: KRAS^G12C and CDKN2A/MTAP^DEL lung tumor xenograft LU99 model; experiment: LU99 lung tumor xenograft, Example 1 (MRTX9768 with or without MRTX849); details: MRTX9768 100 mg/kg PO BID, MRTX849 30 mg/kg PO QD
Description: (§1) Immunodeficient female nu/nu mice were implanted with 5×10^6 LU99 lung cancer cells in 50% Matrigel. Tumors were measured using calipers until they reached approximately 150-200 mm^3. Animals were randomized to receive A) vehicle (0.5% methylcellulose (4000 cps)/0.2% Tween80 in water), B) a PRMT5 inhibitor, C) KRAS^G12C inhibitor, or D) the PRMT5 inhibitor and KRAS^G12C inhibitor, all administered orally (PO) for 21 days. Tumor volume was measured twice a week (n=5/treatment group). Average tumor volume and standard error of the mean was calculated and plotted at each study day in GraphPad.

[2] = test system: KRAS^G12C and CDKN2A/MTAP^DEL lung tumor xenograft LU99 model; experiment: LU99 lung tumor xenograft, Example 2 (MRTX7477 with or without MRTX849); details: MRTX7477 200 mg/kg PO BID, MRTX849 30 mg/kg PO QD
Description: as §1

[3] = test system: LU99 PRMT5-041 lung tumor xenograft model; experiment: LU99 PRMT5-041 tumor xenograft, Example 3 (MRTX1719 with or without MRTX849); assay type: in vivo, mice; details: MRTX1719 50 mg/kg PO QD, MRTX849 30 mg/kg PO QD
Description: as §1

[4] = test system: SW1573 PRMT5-044 lung tumor xenograft model; experiment: SW1573 PRMT5-044 tumor xenograft, Example 4 (MRTX1719 with or without MRTX849); assay type: in vivo, mice; details: MRTX1719 50 mg/kg PO QD, MRTX849 100 mg/kg PO QD
Description: as §1

## Cn1ncc(-c2ccc3c(=O)[nH]nc(CN)c3c2)c1-c1c(F)cc2ccccc2c1C#N [MRTX9768]
[1]; Day 0
  Tumor Volume Mean: 183.59 mm^3
[1]; Day 3
  Tumor Volume Mean: 265.26 mm^3
[1]; Day 7
  Tumor Volume Mean: 331.80 mm^3
[1]; Day 10
  Tumor Volume Mean: 349.53 mm^3
[1]; Day 14
  Tumor Volume Mean: 406.58 mm^3
[1]; Day 17
  Tumor Volume Mean: 431.91 mm^3
[1]; Day 21
  Tumor Volume Mean: 458.95 mm^3

## Cn1ncc(-c2ccc3c(=O)[nH]nc(CN)c3c2)c1-c1ccc2ccccc2c1C#N [MRTX7477]
[2]; Day 1
  Tumor Volume: 214.5 mm^3
[2]; Day 5
  Tumor Volume: 210.7 mm^3
[2]; Day 8
  Tumor Volume: 177.1 mm^3
[2]; Day 12
  Tumor Volume: 185.3 mm^3
[2]; Day 15
  Tumor Volume: 189.1 mm^3
[2]; Day 19
  Tumor Volume: 229.5 mm^3
[2]; Day 21
  Tumor Volume: 267.5 mm^3
[2]; Day −2
  Tumor Volume: 129.4 mm^3

## C=C(F)C(=O)N1CCN(c2nc(OC[C@@H]3CCCN3C)nc3c2CCN(c2cccc4cccc(Cl)c24)C3)C[C@@H]1CC#N [MRTX849]
[3]; Day 0
  Tumor Volume Mean: 154 mm^3
[3]; Day 5
  Tumor Volume Mean: 142 mm^3
[3]; Day 8
  Tumor Volume Mean: 117 mm^3
[3]; Day 12
  Tumor Volume Mean: 87 mm^3
[3]; Day 15
  Tumor Volume Mean: 81 mm^3
[3]; Day 20
  Tumor Volume Mean: 84 mm^3
[3]; Day 22
  Tumor Volume Mean: 103 mm^3
[4]; Day 0
  Tumor Volume Mean: 139 mm^3
[4]; Day 3
  Tumor Volume Mean: 150 mm^3
[4]; Day 8
  Tumor Volume Mean: 188 mm^3
[4]; Day 10
  Tumor Volume Mean: 236 mm^3
[4]; Day 14
  Tumor Volume Mean: 285 mm^3
[4]; Day 17
  Tumor Volume Mean: 320 mm^3
[4]; Day 26
  Tumor Volume Mean: 361 mm^3
